Marks after values point to notes of the source that are not given here.

In this assay the test system is TNBS-induced ulcerative colitis model mice. The experiment in a line: TNBS-induced mice ulcerative colitis model. The assay is classed as in vivo, BALB/c male mice. Also noted: key to Scores of gross morphological damages: 0 = no adhesion/ulcer/inflammation, 4+ = severe ulcers (+1 per cm). The following applies: for Score (body weight index according to the disease activity index, DAI): 0-4 points by weight decrease; for Score (body weight index according to the disease activity index, DAI) / Length of the colon / Weight of the colon / Histopathology scores / Scores of gross morphological damages / weight/length ratio (average) of colon: ig 7 days, sulfasalazine 500 mg/kg; for Score (body weight index according to the disease activity index, DAI) / Length of the colon / Weight of the colon / Histopathology scores / Scores of gross morphological damages / weight/length ratio (average) of colon / Ratio of weight loss: compound 20 mg/kg; for Length of the colon / Weight of the colon: 24 hours after last administration; for Histopathology scores: H&E colon sections, epithelial cells and inflammatory cell infiltration points; for Scores of gross morphological damages: colon adhesion, ulceration, inflammation points; for weight/length ratio (average) of colon: colon weight (g) / length (cm); for Ratio of weight loss: ig daily for 7 days from day of modeling, positive drug sulfasalazine 500 mg/kg, 10 mice per group. The procedure:
BALB/c male mice (each 18-22 g) of SPF level were purchased from Shanghai Slack Laboratory Animal Co., Ltd. and were used in experiments after adaptive feeding for 7 days.
BALB/c male mice were kept in an animal cage (daylight and darkness of 12 hours, respectively) at a temperature of 20-25° C. and relative humidity of 50-60%, free access to food and water.
Mice were randomly divided into normal control group, trinitrobenzenesulfonic acid (TNBS) model group, drug treatment group and positive drug control group (sulfasalazine 500 mg/kg).
All of the mice in model group and administration group were shaved in the abdomen (area 2×2 cm) and sensitized with 1% TNBS (dissolved in 50% ethanol). On the 7th day, the mice were fasted, but not water. After 24 hours, the mice were anesthetized through intraperitoneal injection of 0.1 ml of 10% chloral hydrate and 2% TNBS was used for lavation to establish a mouse model of ulcerative colitis. A gavage needle for rat was inserted into the colon of a mouse, the tip of the needle was about 3˜3.5 cm away from the anus, and 0.1 ml of modeling solution (5% TNBS and deionized water were mixed at a volume ratio of 4:1, and the obtained solution was mixed with absolute ethanol at a volume ratio of 1:1, so as to obtain the modeling solution) was injected. The mice were put back into the cage and wake up naturally. The mice in the normal control group were injected with 0.12 ml of solvent (50% ethanol solution) by the same manner.
Administration was started on the day of modeling (using 0.5% sodium carboxymethylcellulose, CMC-Na) for 7 consecutive days.
At 24 hours after the last administration, the mice were sacrificed by cervical dislocation, the peritoneum was cut open, and the whole colon was taken. The intestine was cut longitudinally along the mesenteric margin, rinsed with ice physiological saline, placed on ice, and the pathological changes of the colon were observed. The fat and mesentery were removed, the water was blotted with filter paper, the weight of the colon was weighed and the length was measured. The colon was fixed in 4% formaldehyde for more than 24 hours, dehydrated, paraffin-embedded and H&E stained, and the pathological sections were observed.
The mice were observed and recorded daily for mental state, fur color, and activities. The mice was weighed daily and observed for the stool traits. The body weight index according to the disease activity index (DAI) is as follows:
After the colon of a mouse was removed, the weight of the colon was measured with a precision electronic balance, the length was measured with a vernier caliper, and the weight/length ratio of the colon was calculated.
The criteria for scores were: no adhesion, no ulcer, no inflammation, 0 points; mild adhesion, local congestion, no ulcer, 1 point; severe adhesion, 1 ulcer (area less than 1 cm), no obvious inflammation, 2 points; more than 1 ulcers (area less than 1 cm) with inflammation, 3 points; 2 severe ulcers (area greater than 1 cm) with inflammation, 4 points; and 1 point for each 1 cm increase in ulcer area.
Pathological changes of colon tissue were observed under light microscope, and the scores were recorded. The criteria for scores are as follows:
1) Epithelial cells: normal morphology, 0 points; loss of goblet cells, 1 point; large loss of goblet cells, 2 points; loss of crypt cells, 3 points; large loss of crypt cells, 4 points.
2) Infiltration of inflammatory cells: no infiltration, 0 points; infiltration in the basal layer of the crypt, 1 point; infiltration to the muscular layer of the mucosa, 2 points; infiltration to the muscular layer of the mucosa with mucosal thickening and obvious edema, 3 points; infiltration to the submucosal layer, 4 points.
Data were expressed as […] (mean±S.E.M.), data were analyzed using SPSS statistical software, and one-way ANOVA and Tukey's HSD post hoc test were used for comparison between groups. p<0.05 was considered statistically significant.

`CN(/N=C/c1ccccc1C(=O)O)c1nc(-c2ccccc2Cl)cs1` [Compound 1, (E)-4-(2-chlorophenyl)-2-[1-methyl-2-(2-carboxybenzylidene)hydrazino]thiazole]: the “Score (body weight index according to the disease activity index, DAI)” value came to 1; the “Length of the colon” value turned out to be 5.575 ± 0.452 cm; the “Weight of the colon” value is on record as 0.162 ± 0.027 g; the Histopathology scores was 2.54 ± 0.62. For the same compound, the “Scores of gross morphological damages” value came to 2.32 ± 0.69, the “weight/length ratio (average) of colon” value is reported as 0.029# and the “Ratio of weight loss” value is recorded as 2.61 ± 4.53.
`CCN(/N=C/c1ccccc1C(=O)O)c1nc(-c2ccccc2Cl)cs1` [Compound 2, (E)-4-(2-chlorophenyl)-2-[1-ethyl-2-(2-carboxybenzylidene)hydrazino]thiazole]: the “Score (body weight index according to the disease activity index, DAI)” value was 1; the Histopathology scores amounted to 3.10 ± 0.55; the “Scores of gross morphological damages” value is 3.37 ± 0.60; the “Ratio of weight loss” value was found to be 1.22 ± 3.68.
On to `CCCN(/N=C/c1ccccc1C(=O)O)c1nc(-c2ccccc2Cl)cs1` [Compound 3, (E)-4-(2-chlorophenyl)-2-[1-propyl-2-(2-carboxybenzylidene)hydrazino]thiazole], for which the “Score (body weight index according to the disease activity index, DAI)” value came out at 2; the “Length of the colon” value was found to be 5.699 ± 0.368 cm; the “Weight of the colon” value is listed as 0.159 ± 0.023 g; the “weight/length ratio (average) of colon” value is 0.028#. Besides, the “Ratio of weight loss” value worked out at 4.26 ± 4.65.
With `CN(/N=C/c1ccc(C(F)(F)F)cc1C(=O)O)c1nc(-c2ccccc2Cl)cs1` [Compound 8, (E)-4-(2-chlorophenyl)-2-[1-methyl-2-(4-trifluoromethyl-2-carboxybenzylidene)hydrazino]thiazole], the “Score (body weight index according to the disease activity index, DAI)” value is listed as 1; the “Length of the colon” value amounted to 6.005 ± 0.452 cm; the “Weight of the colon” value came out at 0.157 ± 0.027 g; the Histopathology scores came out at 1.59 ± 0.68. Further, the “Scores of gross morphological damages” value is listed as 1.42 ± 0.78, the “weight/length ratio (average) of colon” value is reported as 0.026# and the “Ratio of weight loss” value came to 1.07 ± 2.98.
As to `O=C(O)c1cc(C(F)(F)F)ccc1/C=N/Nc1nc(-c2ccccc2Cl)cs1` [Compound 8-1], the “Score (body weight index according to the disease activity index, DAI)” value came to 1 and the “Ratio of weight loss” value is on record as 3.72 ± 1.60.
On the same counts, the results for `Cc1ccc(/C=N/N(C)c2nc(-c3ccccc3Cl)cs2)c(C(=O)O)c1` [Compound 9, (E)-4-(2-chlorophenyl)-2-[1-methyl-2-(4-methyl-2-carboxybenzylidene)hydrazino]thiazole] are 1 and 3.29 ± 4.70.
Regarding `Cc1ccc(/C=N/Nc2nc(-c3ccccc3Cl)cs2)c(C(=O)O)c1` [Compound 9-1], the “Length of the colon” value turned out to be 5.985 ± 0.363 cm, the “Weight of the colon” value turned out to be 0.152 ± 0.023 g, the Histopathology scores came out at 3.94 ± 0.51 and the “Scores of gross morphological damages” value was 3.63 ± 0.71. The “weight/length ratio (average) of colon” value was 0.025#.
`CN(/N=C/c1ccc(F)cc1C(=O)O)c1nc(-c2ccccc2Cl)cs1` [Compound 10, (E)-4-(2-chlorophenyl)-2-[1-methyl-2-(2-carboxyl-4-fluorobenzylidene)hydrazino]thiazole]: the “Score (body weight index according to the disease activity index, DAI)” value came to 1; the “Length of the colon” value is listed as 6.321 ± 0.436 cm; the “Weight of the colon” value was determined as 0.162 ± 0.045 g; the Histopathology scores is 2.09 ± 0.44. The “Scores of gross morphological damages” value came to 1.02 ± 0.41, the “weight/length ratio (average) of colon” value is listed as 0.026# and the “Ratio of weight loss” value was 1.92 ± 3.20.
Regarding `Cc1sc(N(C)/N=C/c2ccccc2C(=O)O)nc1-c1ccccc1` [Compound 12, (E)-5-methyl-4-phenyl-2-[11-methyl-2-(2-carboxybenzylidene)hydrazino]thiazole], the “Score (body weight index according to the disease activity index, DAI)” value is 1; the “Length of the colon” value is 5.075 ± 0.468 cm; the “Weight of the colon” value was found to be 0.154 ± 0.012 g; the “weight/length ratio (average) of colon” value was 0.030#. The “Ratio of weight loss” value is listed as 2.33 ± 2.99.
`Cc1sc(N/N=C/c2ccccc2C(=O)O)nc1-c1ccccc1Cl` [Compound 15, (E)-5-methyl-4-(2-chlorophenyl)-2-(2-carboxylbenzylidenehydrazino)thiazole]: the “Length of the colon” value stood at 5.546 ± 0.402 cm, the “Weight of the colon” value was 0.163 ± 0.023 g and the “weight/length ratio (average) of colon” value is recorded as 0.029#.
As to `O=C(O)c1ccccc1/C=N/Nc1nc(-c2ccccc2Cl)cs1` [Compound 16, (E)-4-(2-chlorophenyl)-2-(2-carboxybenzylidenehydrazino)thiazole], the “Score (body weight index according to the disease activity index, DAI)” value was found to be 1; the Histopathology scores was determined as 2.54 ± 0.49; the “Scores of gross morphological damages” value was 2.22 ± 0.54; the “Ratio of weight loss” value is listed as 3.55 ± 1.47. The “diarrhea of the mice (general condition)” value (FIG. 2, TNBS-mediated UC model BALB/c mice, Compound 16 in three different dosage groups, sulfasalazine control group) is on record as “relieved compared with the model group”. Besides, where the note is “FIG. 3, 5 mg/kg”, the “effect on colonic lesions, comparison of dosages” value is “best effect on colonic lesions”. The “extent of ulcer lesions of colon and visceral adhesions” value (FIG. 3, compound 312 at 5 mg/kg, 20 mg/kg, 50 mg/kg and positive drugs, vs model group) is “can improve the extent of ulcer lesions of colon and visceral adhesions”. Moreover, the “histopathology of colon, comparison of dosages” value (FIG. 4, 5 mg/kg and 50 mg/kg vs 20 mg/kg) is listed as “more effective than those at 20 mg/kg”. The “histopathology of colon (HE staining, mucosal integrity / lesions)” value (FIG. 4, compared with the model group) is “mucosal integrity was improved to a greater extent”.
For the compound `Cc1sc(N/N=C/c2ccccc2C(=O)O)nc1-c1ccccc1` [Compound 17, (E)-5-methyl-4-phenyl-2-(2-carboxylbenzylidenehydrazino)thiazole], the “Length of the colon” value is on record as 5.124 ± 0.332 cm, the “Weight of the colon” value worked out at 0.159 ± 0.034 g and the “weight/length ratio (average) of colon” value is given as 0.030#.
For the compound `CN(/N=C/c1ccccc1C(=O)O)c1nc(-c2ccccc2)cs1` [Compound 20, (E)-4-phenyl-2-[1-methyl-2-(2-carboxybenzylidene)hydrazino]thiazole], the Histopathology scores was determined as 3.65 ± 0.42 and the “Scores of gross morphological damages” value stood at 3.33 ± 0.59.
Turning to `CN(/N=C/c1ccccc1C(=O)O)c1nc(-c2cccc(Cl)c2)cs1` [Compound 21, (E)-4-(3-chlorophenyl)-2-[1-methyl-2-(2-carboxybenzylidene)hydrazino]thiazole], the “Length of the colon” value came to 4.986 ± 0.452 cm, the “Weight of the colon” value amounted to 0.158 ± 0.025 g, the Histopathology scores is listed as 2.54 ± 0.62 and the “Scores of gross morphological damages” value is reported as 2.31 ± 0.79. The “weight/length ratio (average) of colon” value is given as 0.032#.
Consider `CN(/N=C/c1cc(F)c(F)cc1C(=O)O)c1nc(-c2ccccc2Cl)cs1` [Compound 23], for which the “Score (body weight index according to the disease activity index, DAI)” value is 3; the “Length of the colon” value stood at 4.997 ± 0.476 cm; the “Weight of the colon” value turned out to be 0.153 ± 0.027 g; the Histopathology scores is 2.32 ± 0.58. Also, the “Scores of gross morphological damages” value is recorded as 2.02 ± 0.60, the “weight/length ratio (average) of colon” value is 0.030# and the “Ratio of weight loss” value stood at 6.27 ± 2.76.

These data come from US20190290620A1, “APPLICATIONS OF NOVEL THIAZOLE DERIVATIVE IN TREATING INFLAMMATORY BOWEL DISEASES” (EAST CHINA UNIVERSITY OF SCIENCE AND TECHNOLOGY, priority 2016, published 2019).
